We go through two compounds from patent US20250250646A1, “DUAL GENETIC REPORTERS IN HUMAN PLURIPOTENT CELLS FOR USE AS ALTERNATIVE TO MOUSE EMBRYO ASSAY” (Nexpring US Opco Inc., priority 2022, published 2025).

For one series, the system named is CGA-snLuc cells. The note with it: MEAlt assays; low levels of adulterant.
The subject of the next series is SOX2-snLuc cells. Particulars: MEAlt assays; low levels of adulterant.

Excerpt for CGA-snLuc cells: (§1) To perform this assay, cells from the cell lines described in Example 1 were thawed using standard procedures and plated on Vitronectin coated wells of a 96-well plate in Essential 8 Flex medium with Revitacell supplement. Plating density for SOX2-snLuc cells was approximately 20,000 cells per well and for the CGA-snLuc cells, approximately 15,000 cells per well. Empty wells were filled with PBS to reduce variation in Nanoluciferase concentration related to evaporation. Cells were allowed to recover for 7-18 hours prior to exposure to test media.
For CGA-snLuc cells the activation of the reporter required medium that supported trophectoderm/placental differentiation, such as BAP medium. […] DAF-BAP contained DMEM with 25 mM HEPES and 4.5 g/L Glucose and without L-Glutamine, 100 ng/ml BMP-4, 1 μM A83-01, 0.1 μM PD173074, 5 mg/mL of AlbumiNZ Bovine Albumin Low Free Fatty Acid, and 40 μM forskolin. Media was pre-warmed prior to forskolin addition to prevent precipitation.
Following recovery from thawing, media was exchanged to the respective test medium for each cell line. […] Secreted Nanoluciferase was detected by removing 10% of the culture media and mixing in a white assay plate with substrate and buffer using the Promega Nano-Glo Luciferase Assay kit. Luminescence was measured with a BioTek Cytation 1 imaging reader. […]
Excerpt for SOX2-snLuc cells: as §1
For SOX2-snLuc cells the test media was Essential 8 Flex.
Following recovery from thawing, media was exchanged to the respective test medium for each cell line. […] In the case of SOX2-snLuc cells, a baseline read of Luciferase expression was optionally performed prior to media exchange to assess variations in plating density or post-thaw recovery. Exposure to test medium was for 24-96 hours for SOX2-snLuc cells and 48-96 hours for CGA-snLuc cells. Secreted Nanoluciferase was detected by removing 10% of the culture media and mixing in a white assay plate with substrate and buffer using the Promega Nano-Glo Luciferase Assay kit. Luminescence was measured with a BioTek Cytation 1 imaging reader.
The assay was also tested in the context of detecting an adulterant, ethylene glycol (EG), that is known to affect viability of mouse embryos.

With `C=O` [formaldehyde], the “detection of adulterant by the MEAlt assay” value with CGA-snLuc cells and with SOX2-snLuc cells was “successfully detect low levels” throughout.

Regarding triton-x-100, the “detection of adulterant by the MEAlt assay” value in the series on CGA-snLuc cells and in the series with SOX2-snLuc cells was “successfully detect low levels” in each case.
